Experimental data from patent US20130045484A1, “METHODS AND KITS FOR DETERMINING THE TOXICITY OF AN AGENT” (priority 2010, published 2013).
Structures can show the parent of a compound that is named as a salt. Where two headings read alike, the source gives them in different places.

Tests used:
superoxide dismutase = experiment: Superoxide Dismutase (SOD) (Oxidative Stress) Assay; type: cell-based, human; details: mean superoxide dismutase response (450 nm) ÷ mean ATP response × 10^7; HEK 293; mannitol 1 mg/ml, doxorubicin 1 μg/ml, MMS 50 μg/ml, phenformin 250 μg/ml
Experimental: The assay was conducted using the same cell containing sample(s) as the p53R2 Renilla Luciferase Reporter Gene and the Firefly Luciferase Bioluminescent ATP assays. The assays were performed in 96-well cluster plates.
On completion of ATP quantification, SOD was measured on each cellular sample following the SOD assay kit manufacturer's instructions. Briefly, the assay method is based on a water-soluble tetrazolium salt, WST-1 (2-(4-Iodophenyl)-3-(4-nitrophenyl)-5-(2,4-disulfophenyl)-2H-tetrazolium, monosodium salt) that produces a colourimetric formazan dye upon reduction with a superoxide anion which can be measured spectrophotometrically. The rate of the reduction with the superoxide anion is linearly related to […] xanthine oxidase (XO) activity. Thus, cellular samples (20 μl) were added to a reaction mixture (220 μl) containing WST-1 and XO and incubated for 20 mins at 37° C. Absorbance was measured at 450 nm using a 96-well microtitre plate reader.

p53R2 (RE) = system: p53R2 (RE)
Experimental: Constructs were transiently transfected into human HEK 293 cells using a lipid-based commercially available reagent (FuGENE HD Transfection Reagent, Roche Applied Science). Transfections were carried out following the manufacturer's instructions. Briefly, freshly passaged cells (20,000/well) were dispensed into Greiner Bio-One tissue-culture treated μ-clear (clear base), white, sterile, 96-well cluster plates and incubated overnight (37° C., 95% humidity, 5% CO2) in antibiotic-free media. Cells were transfected (100 ng DNA/well; 5 μl transfection complex/well) with pGL4.70 [hRLuc], p53R2 (RE) pGL4.70 [hRLuc], pGL4.70 MinP [hRLuc], or p53R2 (RE) pGL4.70 MinP [hRLuc] for 24 h, in antibiotic-free media. Several FuGENE HD Transfection Reagent: DNA ratios (3:2-8:2 in the final complex) were evaluated in order to determine the optimal level of transient transfection.
Renilla luciferase activity was measured using the ViviRen Luciferase Live Cell Substrate following the Manufacturer's instructions. Briefly, the ViviRen substrate (60 mM; 20 μl) was diluted 1:50 with complete EMEM at room temperature. 10 μl was added to each culture well (to give a final concentration of 60 μM in each well containing cells to be tested). Microtitre plates were incubated for two minutes at room temperature before measuring luminescence on a Tecan Ultra (Tecan Corporation) in luminescence mode, integrating for 100 ms. Alternatively luminescence can be measured on a LEADseeker multi-modality instrument in luminescence mode (GE Healthcare).

caspase-3 = experiment: Caspase-3 (apoptosis) Assay; type: cell-based, human; details: for Mean Apoptotic Index: mean Caspase-3 response (405 nm) ÷ mean ATP response × 10^8, mannitol 1 mg/ml, doxorubicin 1 μg/ml, MMS 50 μg/ml, phenformin 250 μg/ml
Experimental: The assay was carried out using the same cell containing sample(s) as the p53R2 Renilla Luciferase Reporter Gene, the Firefly Luciferase Bioluminescent ATP and the superoxide assays. Once again, all of the assays were performed in 96-well cluster plates. Activation of caspase-3 plays a central role in the execution-phase of apoptosis. Thus, the caspase-3 assay will provide useful information on the mechanism of cellular toxicity. Following SOD measurement, caspase-3 was measured on each cellular sample in accordance with the Caspase-3 Assay Kit manufacturer's instructions. Briefly, the colorimetric assay is based on the hydrolysis of the peptide substrate acetyl-Asp-Glu-Val-Asp p-nitroanilide (Ac-DEVD-pNA) by caspase-3, resulting in the release of the p-nitroaniline (pNA) moiety which can be measured at 405 nm.
For the assay, cellular sample lysates (5 μl) were added to a reaction mixture containing caspase-3 substrate (Ac-DEVD-pNA, 95 μl) and samples were incubated for 2 h at 37° C. Absorbance was measured at 405 nm using a 96-well microtitre plate reader.

Salmonella = details: McCann et al., 1975, PNAS 72, 5135-5139; cited from earlier work
HEK 293 cells = experiment: Firefly Luciferase Bioluminescent ATP cell viability assay; type: cell-based, human; details: for ATP response (cytotoxicity): phenformin 250 μg/ml, MMS 50 μg/ml, doxorubicin 1 μg/ml
Experimental: The assay was carried out in 96-well cluster plates on the same cell containing sample(s) as the p53R2 Renilla Luciferase Reporter Gene Assay. Traditionally bioluminescent ATP quantification methods use firefly luciferase to quantify ATP in the presence of inorganic magnesium ions and the substrate luciferin. The ATP assay described here uses a recombinant luciferase from a gene isolated from the Pennsylvania Firefly (Photuris pennsylvania). Following Renilla luciferase gene reporter activity quantification, firefly luciferase activity was measured in each well using the Cell-Titer Glo Luciferase ATP Quantification Assay Kit in accordance with the kit manufacturer's instructions. Briefly, the enzyme substrate was equilibrated to room temperature and reconstituted with the assay buffer. 100 μl of this reagent was added to cells which quenched the Renilla luciferase reaction and liberated the cellular contents by cellular lysis. […] It is based on the quantitative measurement of ATP which indicates the absolute number of metabolically active cells.

[1] = FIG. 16, apoptosis values alone, HEK 293

| Structure (SMILES) | Mean Stress Index (superoxide dismutase) | induction of Renilla luciferase (p53R2 (RE)) | caspase 3 activities (caspase-3; [1]) | Mean Apoptotic Index (caspase-3; HEK 293) | genotoxicity characterization (Salmonella) | ATP response (cytotoxicity) (HEK 293 cells; FIG. 10e, 8:2 transfection) | ATP response (cytotoxicity) (HEK 293 cells; FIG. 11e, 7:2 transfection) | cytotoxicity based upon ATP levels (HEK 293 cells; FIGS. 10 and 11) | caspase 3 activities (caspase-3) | cytotoxicity based upon ATP levels (HEK 293 cells) |
| --- | --- | --- | --- | --- | --- | --- | --- | --- | --- | --- |
| COc1cccc2c1C(=O)c1c(O)c3c(c(O)c1C2=O)C[C@@](O)(C(=O)CO)C[C@@H]3O[C@H]1C[C@H](N)[C@H](O)[C@H](C)O1 [Doxorubicin, doxorubicin hydrochloride] | 0.96 | significant induction | comparable | 3.43 | highly | no reduction | no reduction | not cytotoxic |  |  |
| OC[C@@H](O)[C@@H](O)[C@H](O)[C@H](O)CO [Mannitol, mannitol] | 1.22 | no induction |  | 1.04 |  |  |  |  |  |  |
| COS(C)(=O)=O [Methylmethane sulfonate, methylmethane sulfonate] |  | less induction |  |  | moderately |  |  |  | comparable | not cytotoxic |
| [H]/N=C(/N)N/C(=N/[H])NCCc1ccccc1 [Phenformin, phenformin hydrochloride] |  | no induction | comparable |  |  |  |  |  |  |  |
